This passage reports IC50 results from US20070244165A1, “Method for Identifying and Producing Effectors of Calmodulin-Dependent Peptidyl-Prolyl Cis/Trans Isomers” (MAX-PLANK-GESELLSCHAFT ZUR FORDERUNG, priority 2004, published 2007).

This experiment addresses T1, human CaMAP FKBP38 (Homo sapiens, UniProt Q14318).
T1 construct: made in house; host or cells: E. coli Rosetta cells (pET28a)
Briefly: Inhibition of PPIase activity of calmodulin-activated CaMAP FKBP38 (isomer-specific proteolysis with chymotrypsin). The format is biochemical. Conditions: 0.5 μM FKBP38, 0.5 μM calmodulin, 5 mM calcium chloride; substrate Suc-Ala-Phe-Pro-Phe-NHNp; read-out: IC50 value (inhibitor concentration against detected enzyme activity). On the procedure:
The human CaMAP FKBP38 (synonyms: FKBP8_HUMAN; Swiss-Prot-No.: Q14318) was produced molecular-biologically, as described in Example 9, and stored in aliquots of 100 μl with a protein concentration of 0.83 mg/ml at −80° C. Just before measuring the activity, one of these aliquots was thawed and subsequently stored at 4° C. Furthermore, commercially available calmodulin isolated from bovine brain (Sigma; purchase order no.: P2277), which had been stored at −80° C., was thawed just before measuring the activity and stored at 4° C. Suc-Ala-Phe-Pro-Phe-pNA (Bachem; purchase order no.: L-1400) was used as CaMAP substrate. Alpha-chymotrypsin isolated from bovine pancreas (Merck KG; purchase order no.: 102307) was used as isomer specific auxiliary enzyme. The following working solutions were prepared just before measuring and stored at 4° C.: • solution A: 55 mM HEPES buffer, pH 7.8; 1 mM DTT, 0.5% glycerol • solution B: 20 mg of the peptide substrate dissolved in 1 ml DMSO • solution C: 20 mg chymotrypsin dissolved in 200 μl of solution A • solution D: FKBP38 ([…], diluted in solution A) • solution E: calmodulin (300 μM, diluted in solution A) • solution F: calcium chloride (1 M in solution A)
For the kinetic determination of CaMAP activity, a computer assisted diode-array spectrometer (Hewlett Packard) with a cuvette temperature of 4° C. is used. […]

Consider `C=CC[C@@H]1/C=C(\C)C[C@H](C)C[C@H](OC)[C@H]2O[C@@](O)(C(=O)C(=O)N3CCCC[C@H]3C(=O)O[C@H](/C(C)=C/[C@@H]3CC[C@@H](O)[C@H](OC)C3)[C@H](C)[C@@H](O)CC1=O)[C@H](C)C[C@@H]2OC` [FK506], for which the IC50 was around 4.3 µM.
